From US8933270B2, “Use of docasatrienes, resolvins, and their stable analogs in the treatment of airway diseases and asthma” (The Brigham and Women's Hospital, Inc., priority 2002, dated 2015)

Columns and labels:
PMN infiltration [1] = experiment: Zymosan A-induced peritonitis; assay type: in vivo, FVB mice; settings: for inhibition of PMN/leukocyte infiltration: i.v. bolus before zymosan A, lavage at 2 h
Procedure: (§1) FIG. 5 depicts Bioimpact properties of omega-3-derived Resolvins. A) Human glioma cells: Inhibition of TNF-stimulated IL-1β transcripts DBTRG-05MG cells 10^6/ml were stimulated with 50 ng/ml of human recombinant TNFα for 16 hours to induce expression of IL-1β transcripts. Concentration dependence with COX-2 products: 17-HDHA (n), 13-HDHA (l)and di-/tri-HDHA (n). […] (insets) Results are representative of RT-PCR gels of MG cells exposed to 100 nM of 13-HDHA or 17-HDHA and graphed after normalization of the IL-1β transcripts using GAPDH. B) Influence of eicosanoids and docosanoids on fMLP-induced neutrophil migration across micovascular endothelial monolayers Neutrophils (1×10^6 cells/monolayer) were exposed to vehicle containing buffer, or indicated concentrations of aspirin-triggered LXA4 analog (closed diamonds) 5S,12,18R-triHEPE (closed squares), 17R-HDHA (closed circles) or 13-HDHA (closed triangles) for 15 minutes at 37° C. Neutrophils were then layered on HMVEC monolayers and stimulated to transmigrate by a 10^−8 M fMLP gradient for 1 hr at 37° C. Transmigration was assessed by quantitation of the neutrophil marker myeloperoxidase. Results are presented as mean±SEM number of PMN (n=8-12 monolayers per condition). C) Reduction of PMN in murine peritonitis and skin pouch peritonitis: Compounds (100 ng in 120 μL sterile saline) were injected by intravenous bolus injection into the mouse tail vein and followed by 1 ml zymosan A (1 mg/ml) into the peritoneum. Peritoneal lavages were collected (2 h) and cell types were enumerated.
Human PMN transendothelial migration was quantitated by monitoring myeloperoxidase (MPO) an azurophilic granule marker as in (34, 37). Inflammatory exudates were initiated with intrapouch injection of recombinant mouse TNFα (100 ng/pouch; R&D Systems) into dorsal air pouches (10) of 6-8 wk male FVB mice fed laboratory rodent diet 5001 (Lab Diet, Purina Mills) containing less than 0.25% arachidonic acid, 1.49% EPA and 1.86% DHA followed by ASA (500 μg) at 3.5 h and 300 μg DHA/pouch at 4 h post-TNFα injection. At 6 h (within the resolution phase), pouches were lavaged (3 ml saline) and exudate cells were enumerated Inhibition of TNFα stimulated (100 ng/pouch) PMN infiltration with i.v. tail injection of either 17R-HDHA (as prepared with COX-2 vide infra), 5S,12,18R-HEPE, or a 15-epi-LXA4 analog were determined with pouch lavages taken at 4 h. Peritonitis was performed using 6 to 8-week-old FVB male mice (Charles River Laboratories) fed laboratory Rodent Diet 5001 (Purina Mills) that were anesthetized with isoflurane, and compounds to be tested (125 μl) were administered intravenously. Zymosan A in 1 ml (1 mg/ml) was injected ˜1-1.5 min later in the peritoneum. Each test compound (100 ng/incubation, i.e. 17R-HDHA in ethanol) or vehicle alone was suspended in ˜5 μl and mixed in sterile saline 120 μl. Two hours after the intraperitoneal injections, and in accordance with the Harvard Medical Area Standing Committee on Animals protocol #02570, mice were euthanized and peritoneal lavages rapidly collected for enumeration.
Peritonitis was induced in 6 to 8 week old male FVB mice by peritoneal injection of 1 mg Zymosan A. Compounds 4,17S and 10,17S-diHDHA were injected by intravenous bolus injection, 1.5 minutes before Zymosan A treatment. Two hours after induction of peritonitis, rapid peritoneal lavages were collected and cell type enumeration was performed.

PMN infiltration [2] = experiment: Zymosan A-induced peritonitis; assay type: in vivo, FVB mice; settings: dose increased to 200 ng, intravenous bolus
leukocyte infiltration = experiment: TNFα-induced dorsal air pouch; assay type: in vivo, FVB mice; settings: i.v. or local (intrapouch) administration, lavage at 4 h
human PMN = experiment: fMLP-induced neutrophil migration across microvascular endothelial monolayers (MPO); assay type: cell-based; settings: nM range; 10^-8 M fMLP gradient, 1 hr
Procedure: FIG. 5 depicts Bioimpact properties of omega-3-derived Resolvins. A) Human glioma cells: Inhibition of TNF-stimulated IL-1β transcripts DBTRG-05MG cells 10^6/ml were stimulated with 50 ng/ml of human recombinant TNFα for 16 hours to induce expression of IL-1β transcripts. Concentration dependence with COX-2 products: 17-HDHA (n), 13-HDHA (l)and di-/tri-HDHA (n). […] (insets) Results are representative of RT-PCR gels of MG cells exposed to 100 nM of 13-HDHA or 17-HDHA and graphed after normalization of the IL-1β transcripts using GAPDH. […] Transmigration was assessed by quantitation of the neutrophil marker myeloperoxidase. […]
Human PMN transendothelial migration was quantitated by monitoring myeloperoxidase (MPO) an azurophilic granule marker as in (34, 37). […] At 6 h (within the resolution phase), pouches were lavaged (3 ml saline) and exudate cells were enumerated Inhibition of TNFα stimulated (100 ng/pouch) PMN infiltration with i.v. tail injection of either 17R-HDHA (as prepared with COX-2 vide infra), 5S,12,18R-HEPE, or a 15-epi-LXA4 analog were determined with pouch lavages taken at 4 h. […]

leukotrienes [3] = experiment: Leukotriene formation by human PMN; assay type: cell-based; settings: in vitro, n=4, not shown
[4] = test system: IL-1β transcripts in DBTRG-05MG cells; experiment: Inhibition of TNF-stimulated IL-1β transcripts (RT-PCR); assay type: cell-based, human; settings: Homo sapiens, DBTRG-05MG; 50 ng/ml TNFα, 16 h; read-out: IC50, inhibition of TNFα-induced IL-1β transcripts / cytokine expression
Procedure: as §1, with “C) Reduction of PMN in murine peritonitis and skin pouch peritonitis: Compounds (100 ng in 120 μL sterile saline) were injected by intravenous bolus injection into the mouse tail vein and followed by 1 ml zymosan A (1 mg/ml) into the peritoneum. Peritoneal lavages were collected (2 h) and cell types were enumerated.” left out
Human glioma cells DBTRG-05MG cells (ATCC) were cultured as recommended by ATCC. […] Results were analyzed using the NIH Image program (http://rsb.info.nih.gov/nih-image).

leukotrienes [5] = experiment: Leukotriene formation in murine exudates; assay type: in vivo; settings: n=4, not shown
[6] = test system: thromboxane and prostanoids; experiment: Thromboxane and prostanoid production in air pouch exudates; assay type: in vivo, FVB mice; settings: ASA 500 μg per pouch
Excerpt: It is noteworthy that the Lab Diet 5001 used to feed these mice contained 1.86% DHA and 1.49% EPA with <0.25% arachidonic acid (Purina Mills).

human recombinant COX-2 = target: T1, human recombinant COX-2 (Homo sapiens, UniProt P35354); experiment: Impact of NSAIDs on COX-2 conversion of DHA; assay type: biochemical
T1 construct: made in house; host or cells: Sf9 insect cells (microsomal fractions)
T1 sequence (P35354 18-604): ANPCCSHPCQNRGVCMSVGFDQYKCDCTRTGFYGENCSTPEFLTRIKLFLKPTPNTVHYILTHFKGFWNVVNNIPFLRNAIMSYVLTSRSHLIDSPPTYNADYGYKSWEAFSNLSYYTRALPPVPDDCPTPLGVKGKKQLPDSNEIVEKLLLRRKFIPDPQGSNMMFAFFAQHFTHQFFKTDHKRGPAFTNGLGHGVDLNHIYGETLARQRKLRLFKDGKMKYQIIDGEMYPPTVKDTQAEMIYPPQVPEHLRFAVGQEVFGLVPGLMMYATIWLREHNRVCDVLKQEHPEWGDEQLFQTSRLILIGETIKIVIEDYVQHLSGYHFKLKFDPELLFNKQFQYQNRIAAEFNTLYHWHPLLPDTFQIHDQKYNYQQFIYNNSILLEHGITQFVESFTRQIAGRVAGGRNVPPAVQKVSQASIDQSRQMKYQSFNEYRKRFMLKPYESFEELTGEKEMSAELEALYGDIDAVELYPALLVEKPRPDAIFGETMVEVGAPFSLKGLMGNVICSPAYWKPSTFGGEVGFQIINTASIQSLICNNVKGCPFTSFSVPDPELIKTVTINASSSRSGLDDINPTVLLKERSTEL
Procedure: (§2) Human recombinant COX-2 was overexpressed in Sf9 insect cells (ATCC). The microsomal fractions (˜8 μl) were suspended in Tris (100 mM, pH 8.0) as in (35). ASA was incubated (˜2 mM, 37° C., 30 min) with COX-2 before addition of DHA (10 μM), or in some experiments [1-^14C]-labeled DHA (from American Radiolabeled Chemicals, Inc.), and conversions were monitored in parallel using [1^−14C]-labeled C20:4 (with ASA) (as in FIG. 2; also see text).
(§3) Incubations were extracted with deuterium-labeled internal standards (15-HETE and C20:4) for LC-MS-MS analysis as in (33) using a Finnigan LCQ liquid chromatography ion trap tandem mass spectrometer (San Jose, Calif.) equipped with a LUNA C18-2 (150×2 mm×5 μm or 100×2 mm×5 μm) column and a rapid spectra scanning UV diode array detector that monitored UV absorbance ˜0.2 min prior to samples entering the MS-MS. All intact cell incubations and in vivo exudates were stopped with 2 ml cold methanol and kept at −80° C. for >30 minutes. Samples were extracted using C18 solid phase extraction and analyzed using GC-MS (see Table 2) (Hewlett-Packard), thin layer chromatography or tandem liquid chromatography-mass spectrometry (LC-MS-MS). Also, a Chiralcel OB-H column (4.6×250 mm; J. T. Baker) was used to determine R and S alcohol configurations of monohydroxy-PUFA using isocratic mobile phase (hexane:isopropanol; 97.5:2.5, vol:vol, with a 0.6 ml/min flow rate). Detailed procedures for isolation, quantitation and structural determination of lipid-derived mediators were recently reported (36) and used here essentially as reported for elucidation of novel products.
Results are the mean±SEM, n=3. Products were extracted, identified, and quantitated using deuterium internal standards and LC-MS-MS (see Methods).

ASA-acetylated COX-2 = target: T2, ASA-acetylated COX-2 (Homo sapiens, UniProt P35354); experiment: Substrate conversion by ASA-acetylated COX-2; assay type: biochemical; settings: C20:4 to 15R-HETE, DHA to 17R-HDHA; mean±S.E.M., n=3
T2 construct: made in house; host or cells: Sf9 insect cells (microsomal fractions), then treated with about 2 mM ASA
T2 sequence (P35354 18-604): T1 sequence (P35354 18-604)
Procedure: as §2
as §3, with “Also, a Chiralcel OB-H column (4.6×250 mm; J. T. Baker) was used to determine R and S alcohol configurations of monohydroxy-PUFA using isocratic mobile phase (hexane:isopropanol; 97.5:2.5, vol:vol, with a 0.6 ml/min flow rate).” left out

CCC=CCC(O)C=CC=CCC=CCC=CC=CC(O)CCC(=O)O (stereo not drawn) [4,17S-diHDHA]
potency relative to comparator at equal dose (PMN infiltration [1]; PMN/leukocyte infiltration, FIG. 16 and FIG. 18): approximately half as potent as 10,17-docosatriene | inhibition of PMN/leukocyte infiltration (PMN infiltration [1]): dose-dependent inhibition | effectiveness relative to 10,17-docosatriene (PMN infiltration [2]): essentially equally effective

CC/C=C\CC(O)/C=C/C=C\C/C=C\C/C=C\C/C=C\CCC(=O)O (stereo not drawn) [17R-HDHA, 17-hydroxy-docosa-4Z,7Z,10Z,13Z,15E,19Z-hexaenoic acid]
regulation of PMN/leukocyte recruitment into the air pouch (leukocyte infiltration): did regulate in vivo PMN exudate cell numbers | direct impact on PMN transmigration across endothelial monolayers (human PMN): did not directly inhibit | formation of leukotrienes (leukotrienes [3]): prevented formation of leukotrienes | IC50 [4]: ~0.05 nM | inhibition of PMN/leukocyte infiltration (PMN infiltration [1]): potent inhibitor | formation of leukotrienes (leukotrienes [5]): prevented formation of leukotrienes

CC(=O)Oc1ccccc1C(=O)O [ASA, aspirin]
in vivo production of thromboxane and prostanoids [6]: completely inhibited | % Increase of 17-HDHA (human recombinant COX-2; NSAID incubated 30 min with COX-2, ASA 2 mM, indomethacin 200 μM, acetaminophen 500 μM, NS398 100 μM, mean±SEM, n=3): 97.8 ± 2.0% | inhibition at 2000 µM (human recombinant COX-2; read-out: % Inhibition of 13-HDHA): 85.7 ± 5.6%

CCCCC/C=C\C/C=C\C/C=C\C/C=C\CCCC(=O)O [C20:4, arachidonic acid]
substrate conversion (ASA-acetylated COX-2): 67%±5%
